Source: patent US8563730B2, “Pyrazole and fused pyrazole glucokinase activators” (Takeda San Diego, Inc., priority 2008, dated 2013)
pEC50: −log10 of the molar value. Where two headings read alike, the source gives them in different places.

Molecular target: T1, GK (glucokinase, residues 12-465) (Homo sapiens, UniProt P35557)
T1 construct: I.D. No. 1 corresponds to residues 12-465 of glucokinase; made in house; host or cells: DH10b-T1r E. coli
T1 sequence (P35557 with tags, fused parts or gaps isoform P35557-2): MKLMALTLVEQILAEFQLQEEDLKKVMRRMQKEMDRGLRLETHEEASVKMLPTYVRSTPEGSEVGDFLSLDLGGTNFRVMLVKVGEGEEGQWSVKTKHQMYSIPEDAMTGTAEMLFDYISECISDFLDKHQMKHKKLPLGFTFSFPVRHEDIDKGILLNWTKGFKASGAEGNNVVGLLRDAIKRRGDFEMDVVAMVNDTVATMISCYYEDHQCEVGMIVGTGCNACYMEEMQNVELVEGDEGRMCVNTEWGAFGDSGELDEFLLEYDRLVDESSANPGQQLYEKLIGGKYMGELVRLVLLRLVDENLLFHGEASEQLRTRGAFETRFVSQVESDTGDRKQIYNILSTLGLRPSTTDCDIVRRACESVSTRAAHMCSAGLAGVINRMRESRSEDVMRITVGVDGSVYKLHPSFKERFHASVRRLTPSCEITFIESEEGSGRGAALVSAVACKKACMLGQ
Test: enzymatic glucokinase activity assay (ATP consumption, KinaseGlo luminescence)
Format: biochemical
Conditions: 5 μM ATP, 5 mM Glucose, reported as bins; for pEC50: Kact = concentration that displays 50% of the maximal increase in GK activity, 60 min, room temperature, read-out: pKact
From the text: The activity of compounds as glucokinase activators may be assayed in vitro, in vivo or in a cell line. Provided below is an enzymatic glucokinase activity assay.
Purified glucokinase may be obtained as follows. […] SEQ.
The expression of recombinant glucokinase protein may be carried out by transformation and growth of DH10b-T1r E. coli cells incorporating the (pFLAG-CTC) plasmid in LB media. Protein expression can be induced in this system by the addition of IPTG to the culture medium.
Recombinant protein may be isolated from cellular extracts by passage over Sepharose Q Fast Flow resin (Pharmacia). This partially purified GK extract may then be further purified by a second passage over Poros HQ10 (Applied Biosystems). The purity of GK may be determined on denaturing SDS-PAGE gel. Purified GK may then be concentrated to a final concentration of 20.0 mg/ml. After flash freezing in liquid nitrogen, the proteins can be stored at −78° C. in a buffer containing 25 mM TRIS-HCl pH 7.6, 50 mM NaCl, and 0.5 mM TCEP.
The activation properties of compounds for GK may be determined using a black 384-well-plate format under the following reaction conditions: 25 mM Hepes pH 7.2, 25 mM NaCl, 10 mM MgCl2, 0.01% Brij35, 1 mM DTT, 5 μM ATP, 5 mM Glucose 2% DMSO. The amount of ATP consumed may be determined quantitatively by addition of equal volume of luciferase reagent (luciferase+beetle luciferin—KinaseGlo Luminescent Kinase Assay kit from Promega). The luminescence intensity may be measured by using the Analyst HT from LJL Biosystems.
The reaction mixture may then be incubated at room temperature for 60 min, and quenched and developed by addition of 10 μL of luciferase reagent. Luminescence intensities of the resulting reaction mixtures may be measured after a 10 min incubation at room temperature. The luminescence intensity may be measured by using the Analyst HT from LJL Biosystems.
pKact and % ACTmax values may be calculated by non-linear curve fitting of the compound concentrations and luminescence intensities to a standard inhibition/activation equation.

[1] = calculated maximal gain in GK enzyme activity at a saturating concentration of the compound, read-out: % ACTmax
[2] = read-out: % ACTmax, calculated maximal gain in GK enzyme activity at a saturating concentration of the compound

In the case of `NC(=O)c1ccc(NC(=O)C(CC2CCOCC2)n2ncc3c(S(=O)(=O)C4CC4)cc(F)cc32)nc1` (stereo not shown) [Compound 117, 6-(2-(4-(cycloproypylsulfonyl)-6-fluoro-1H-indazol-1-yl)-3-(tetrahydro-2H-pyran-4-yl)propanamido)nicotinamide], the pEC50 was ≥ 6.50 and the Emax [1] was 106 to 110%.
In the case of `Nc1cc(S(=O)(=O)C2CC2)c2cnn(C(CC3CCOCC3)C(=O)Nc3cnccn3)c2n1` (stereo not shown) [Compound 96, 2-(6-amino-4-(cyclopropylsulfonyl)-1H-pyrazolo[3,4-b]pyridin-1-yl)-N-(pyrazin-2-yl)-3-(tetrahydro-2H-pyran-4-yl)propanamide], the pEC50 was 5.90 to 6.40 and the Emax [1] was 101 to 105%.
In the case of `O=C(Nc1ncc(F)s1)[C@H](CC1CCOCC1)n1ncc2c(S(=O)(=O)C3CC3)cc(O)cc21` [Compound 76, (S)-2-(4-(cyclopropylsulfonyl)-6-hydroxy-1H-indazol-1-yl)-N-(5-fluorothiazol-2-yl)-3-(tetrahydro-2H-pyran-4-yl)propanamide], the pEC50 was ≥ 6.50 and the Emax [1] was 106 to 110%.
With `COc1ccc2nc(NC(=O)C(CC3CCOCC3)n3cc(S(=O)(=O)c4ccc(Cl)cc4)cn3)sc2n1` (stereo not shown) [Compound 30, 2-(4-(4-chlorophenylsulfonyl)-1H-pyrazol-1-yl)-N-(5-methoxythiazolo[5,4-b]pyridin-2-yl)-3-(tetrahydro-2H-pyran-4-yl)propanamide] the pEC50 was 4.90 to 5.40 and the Emax [1] was ≤ 90%.
With `O=C(Nc1ncc(F)s1)C(CC1CCCC1)n1ncc2c(S(=O)(=O)C3CC3)cccc21` (stereo not shown) [Compound 62, 3-cyclopentyl-2-(4-(cyclopropylsulfonyl)-1H-indazol-1-yl)-N-(5-fluorothiazol-2-yl)propanamide] the pEC50 was 5.90 to 6.40 and the Emax [1] was 90 to 100%.
With `O=C(Nc1ncc(F)s1)C(CC1CCOCC1)n1cc(S(=O)(=O)C2CC2)cn1` (stereo not shown) [Compound 28, 2-(4-(cyclopropylsulfonyl)-1H-pyrazol-1-yl)-N-(5-fluorothiazol-2-yl)-3-(tetrahydro-2H-pyran-4-yl)propanamide] the pEC50 was 4.90 to 5.40 and the Emax [1] was ≥ 111%.
With `Cn1ccc(NC(=O)C(CC2CCOCC2)n2ncc3c(S(=O)(=O)C4CC4)cc(N)nc32)n1` (stereo not shown) [Compound 170, 2-(6-amino-4-(cyclopropylsulfonyl)-1H-pyrazolo[3,4-b]pyridin-1-yl)-N-(1-methyl-1H-pyrazol-3-yl)-3-(tetrahydro-2H-pyran-4-yl)propanamide] the pEC50 was ≤ 4.80 and the Emax [1] was ≤ 90%.
With `COc1ccc2c(cnn2C(CC2CCOCC2)C(=O)Nc2ncc(F)s2)c1S(=O)(=O)C1CC1` (stereo not shown) [Compound 80, 2-(4-(cyclopropylsulfonyl)-5-methoxy-1H-indazol-1-yl)-N-(5-fluorothiazol-2-yl)-3-(tetrahydro-2H-pyran-4-yl)propanamide] the pEC50 was ≥ 6.50 and the Emax [1] was 101 to 105%.
`NC(=O)c1ccc(NC(=O)C(CC2CCOCC2)n2ncc3c(S(=O)(=O)C4CC4)cccc32)nc1` (stereo not shown) [Compound 14, 6-(2-(4-(cyclopropylsulfonyl)-1H-indazol-1-yl)-3-(tetrahydro-2H-pyran-4-yl)propanamido)nicotinamide] was tested, and the pEC50 was ≥ 6.50 and the Emax [1] was ≥ 111%.
Molecule `O=C(Nc1cnccn1)C(CC1CCOCC1)n1ncc2c(S(=O)(=O)C3CC3)cccc21` (stereo not shown) [Compound 65, 2-(4-(cyclopropylsulfonyl)-1H-indazol-1-yl)-N-(pyrazin-2-yl)-3-(tetrahydro-2H-pyran-4-yl)propanamide] has a pEC50 of 5.90 to 6.40 and an Emax [1] of 90 to 100%.
In the case of `Cn1ccc(NC(=O)C(CC2CCOCC2)n2ncc3c(S(=O)(=O)C4CC4)cc(C#N)cc32)n1` (stereo not shown) [Compound 19, 2-(6-cyano-4-(cyclopropylsulfonyl)-1H-indazol-1-yl)-N-(1-methyl-1H-pyrazol-3-yl)-3-(tetrahydro-2H-pyran-4-yl) propanamide], the pEC50 was ≥ 6.50 and the Emax [1] was ≤ 90%.
With `COc1ccc2c(cnn2[C@@H](CC2CCOCC2)C(=O)Nc2ncc(F)s2)c1S(=O)(=O)C1CC1` [Compound 82, (S)-2-(4-(cyclopropylsulfonyl)-5-methoxy-1H-indazol-1-yl)-N-(5-fluorothiazol-2-yl)-3-(tetrahydro-2H-pyran-4-yl)propanamide] the pEC50 was ≥ 6.50 and the Emax [1] was 106 to 110%.
`Cn1ccc(NC(=O)C(CC2CCOCC2)n2ncc3c(S(=O)(=O)C4CC4)cncc32)n1` (stereo not shown) [Compound 151, 2-(4-(cyclopropylsulfonyl)-1H-pyrazolo[3,4-c]pyridin-1-yl)-N-(1-methyl-1H-pyrazol-3-yl)-3-(tetrahydro-2H-pyran-4-yl)propanamide] gave a pEC50 of 5.50 to 5.80 and an Emax [1] of 90 to 100%.
For `O=C(Nc1ncc(F)s1)C(CC1CCOCC1)n1ncc2c(S(=O)(=O)C3CC3)cc(OC(F)F)cc21` (stereo not shown) [Compound 143, 2-(4-(cyclopropylsulfonyl)-6-(difluoromethoxy)-1H-indazol-1-yl)-N-(5-fluorothiazol-2-yl)-3-(tetrahydro-2H-pyran-4-yl)propanamide], the pEC50 was ≥ 6.50 and the Emax [1] was ≤ 90%.
In the case of `COc1ccc2nc(NC(=O)[C@H](CC3CCOCC3)n3ccc(S(=O)(=O)C4CC4)n3)sc2n1` [Compound 2, (S)-2-(3-(cyclopropylsulfonyl)-1H-pyrazol-1-yl)-N-(5-methoxythiazolo[5,4-b]pyridin-2-yl)-3-(tetrahydro-2H-pyran-4-yl)propanamide], the pEC50 was ≤ 4.80 and the Emax [1] was ≤ 90%.
`O=C(Nc1ccncn1)C(CC1CCOCC1)n1ncc2c(S(=O)(=O)C3CC3)cccc21` (stereo not shown) [Compound 124, 2-(4-(cyclopropylsulfonyl)-1H-indazol-1-yl)-N-(pyrimidin-4-yl)-3-(tetrahydro-2H-pyran-4-yl)propanamide] was tested, and the pEC50 was 4.90 to 5.40 and the Emax [1] was ≥ 111%.
With `O=C(Nc1cnccn1)[C@H](CC1CCOCC1)n1ncc2c(S(=O)(=O)C3CC3)cncc21` [Compound 171, (S)-2-(4-(cyclopropylsulfonyl)-1H-pyrazolo[3,4-c]pyridin-1-yl)-N-(pyrazin-2-yl)-3-(tetrahydro-2H-pyran-4-yl)propanamide] the pEC50 was 5.50 to 5.80 and the Emax [2] was 106 to 110%.
With `O=C(Nc1ncc(F)s1)C(CC1CCOCC1)n1ncc2c(S(=O)(=O)C3CC3)c(F)ccc21` (stereo not shown) [Compound 149, 2-(4-(cyclopropylsulfonyl)-5-fluoro-1H-indazol-1-yl)-N-(5-fluorothiazol-2-yl)-3-(tetrahydro-2H-pyran-4-yl)propanamide] the pEC50 was ≥ 6.50 and the Emax [1] was ≥ 111%.
For `O=C(Nc1ncc(F)s1)[C@@H](CC1CCCC1)n1cc(S(=O)(=O)C2CC2)cn1` [Compound 35, (R)-3-cyclopentyl-2-(4-(cyclopropylsulfonyl)-1H-pyrazol-1-yl)-N-(5-fluorothiazol-2-yl)propanamide], the pEC50 was ≤ 4.80 and the Emax [1] was ≤ 90%.
In the case of `COc1ccc2nc(NC(=O)[C@@H](CC3CCOCC3)n3cc(S(=O)(=O)C4CC4)cn3)sc2n1` [Compound 25, (R)-2-(4-(cyclopropylsulfonyl)-1H-pyrazol-1-yl)-N-(5-methoxythiazolo[5,4-b]pyridin-2-yl)-3-(tetrahydro-2H-pyran-4-yl)propanamide], the pEC50 was ≤ 4.80 and the Emax [1] was ≤ 90%.
With `Cn1ccc(NC(=O)[C@@H](CC2CCOCC2)n2ncc3c(S(=O)(=O)C4CC4)cccc32)n1` [Compound 118] the pEC50 was ≤ 4.80 and the Emax [2] was ≤ 90%.
For `O=C(Nc1ncc(F)s1)[C@@H](CC1CCOCC1)n1cc(S(=O)(=O)C2CCCC2)cn1` (single isomer, unassigned) [Compound 37, 2-(4-(cyclopentylsulfonyl)-1H-pyrazol-1-yl)-N-(5-fluorothiazol-2-yl)-3-(tetrahydro-2H-pyran-4-yl)propanamide], the pEC50 was 5.50 to 5.80 and the Emax [1] was ≥ 111%.
With `O=C1CC[C@H](CC(C(=O)Nc2ncc(Cl)s2)n2ncc3c(S(=O)(=O)C4CC4)cccc32)C1` (stereo partly drawn) [Compound 11, N-(5-chlorothiazol-2-yl)-2-(4-(cyclopropylsulfonyl)-1H-indazol-1-yl)-3-((R)-3-oxocyclopentyl)propanamide] the pEC50 was ≥ 6.50 and the Emax [1] was 101 to 105%.
